Test results as given in ChEMBL document CHEMBL1201862, “PubChem BioAssay data set” (2004).
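Protocol summary: plate cells (96-well), add compound at 5 concentrations, incubate 48 h, interpolate endpoints linearly. Here, GI50 denotes the concentration required for 50% inhibition of growth.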 The source made the active and inactive calls. Rule as the data show it: active = GI50 up to about 1.1 µM and inactive = higher.

Legend:
Experiment in all cases: inhibition of tumour cell growth, NCI panel, 48 h
U-251 = tested on: U-251
MCF7 = tested on: MCF7
HCC 2998 = tested on: HCC 2998
HT-29 = tested on: HT-29
SF-295 = tested on: SF-295
MOLT-4 = tested on: MOLT-4
COLO 205 = tested on: COLO 205
UACC-257 = tested on: UACC-257
ACHN = tested on: ACHN
T47D = tested on: T47D
M14 = tested on: M14
SF-539 = tested on: SF-539
HOP-62 = tested on: HOP-62
PC-3 = tested on: PC-3
IGROV-1 = tested on: IGROV-1
OVCAR-5 = tested on: OVCAR-5
RPMI-8226 = tested on: RPMI-8226
SK-MEL-28 = tested on: SK-MEL-28
HL-60 = tested on: HL-60
EKVX = tested on: EKVX

Measured: GI50

COc1ccc(C[C@H]2COC(=O)[C@@H]2Cc2cccc(Br)c2)cc1OC
inactive: U-251 26.4 µM | MCF7 16.2 µM | HCC 2998 24.5 µM | HT-29 21.8 µM | SF-295 32.7 µM | MOLT-4 8.75 µM | COLO 205 14 µM | UACC-257 21.5 µM | ACHN 18.6 µM | T47D 27.7 µM | M14 14.4 µM | SF-539 19.5 µM | HOP-62 31.4 µM | PC-3 15.8 µM | IGROV-1 31.6 µM | OVCAR-5 33.1 µM | RPMI-8226 17.8 µM | SK-MEL-28 30.5 µM | HL-60 12.2 µM | EKVX 29.4 µM
